How the values were obtained:
[1] = Example 3: randomized double-blind placebo-controlled crossover study in primary insomnia (PSG, patient reports, DSST, safety); format: in vivo, human
Protocol: A randomized, multicenter, double-blind, placebo-controlled crossover study was conducted to assess the efficacy of the 1.5 mg and 2.5 mg doses of the compound of formula (II) in the treatment of primary insomnia in adult patients. Specifically, one of the objectives of the study was to assess the efficacy of 1.5 mg and 2.5 mg doses on polysomnogram (PSG) and patient-reported measures of sleep. Also, the study was aimed at assessing the safety of 1.5 mg and 2.5 mg doses.
The study in this Example was performed for two consecutive nights with a 5-12 day washout between each period. The dosing was conducted 30 minutes before lights were turned out for the night via oral administration of a hard gelatine capsule containing the compound of formula (II) in powder form. PSG was taken for 8 hours from “lights out” on nights 1 and 2 of each treatment period. Centralized scoring of PSG was used. Testing for residual effects using the Digit Symbol Substitution Test (DSST) was performed at least 30 minutes after wake time (9 hours post dose).
[…] These subjects' typical bed time was between 9 pm and 1 am with at least 7 hours in bed. These subjects reported sleep latency of at least 45 minutes and total sleep time (TST) of not more than 6.5 hours in a sleep diary for at least 3 of 7 nights.
Mean wake time after sleep onset (WASO) of the patients was at least 40 minutes and mean TST was 240-420 minutes.

[2] = Example 2: single and repeat dose pharmacokinetic, safety and pharmacodynamic study in healthy volunteers; format: in vivo; details: human
Protocol: A single and repeat dose pharmacokinetic safety and pharmacodynamic study of the effects of the compound of formula (II) was conducted using healthy volunteers. The compound of formula (II) was administered orally in 1 mg, 1.5 mg, 2 mg and 2.5 mg doses via a hard gelatine capsule containing the compound in powder form.

[3] = target: T1, rat GABAA receptors α5β2γ2 (Rattus norvegicus, UniProt P18508+P19969); test: Stimulation of GABA (EC3-5)-elicited currents in Xenopus oocytes, two-electrode voltage clamp, α5β2γ2; format: cell-based
T1 construct: expressed in transfected cells; host or cells: Xenopus laevis oocytes, cRNA microinjected
Source text: 7-Chloro-3-(5-dimethylaminomethyl-[1,2,4]oxadiazol-3-yl)-5methyl-4,5-dihydro-imidazol[1,5,-a][1,4]benzodiazepine-6-one was used to test the effects of the compound of formula (II): […]
Similar procedures were chosen as for the investigation of other GABAA receptor subunit specific substances (e.g., Baur et al., 2005; Mol. Pharmacol. 68, 787-792).
Lobes of the ovary containing the follicles were obtained by surgical procedures from female Xenopus laevis. Follicles were singled out using a platinum loop. Fifty nL of cRNA solution at a ratio of αx:β2:γ2 of 1:1:5 (3.3-10 nM αx (x=1,2,3,5); 3.3-10 nM β2; 16.7-50 nM γ2) (Boileau et al., 2002; Neuropharmacology 43, 695-700) were microinjected into Xenopus follicles. Several hours after microinjection the follicles were freed of follicular layers and adhering connective tissue by a collagenase/hypertonic shock procedure (Sigel, 1987; J. Physiol.(Land) 386, 73-90). Oocytes were kept at constant 18° C. until measurement (1-4 days) in a modified Barth solution (88 mM NaCl, 1 mM KCl, 2.4 mM NaHCO3, 10 mM Hepes-NaOH (pH 7.5), 0.82 mM MgSO4×7H2O, 0.34 mM Ca(NO3)2×4H2O, 0.41 mM CaCl2×2H2O, 100 U Penicillin/mL, 100 μg Streptomycin/mL, sterile filtered).
Currents were measured using a home-built amplifier in combination with a xy-recorder or were digitized using a MacLab/200 (AD Instruments) and stored on a computer. Xenopus oocytes were voltage clamped using the two-electrode voltage clamp technique (electrode resistance about 0.8 MΩ) at −80 mV. The medium contained 90 mM NaCl, 1 mM KCl, 1 mM MgCl2, 1 mM CaCl2, 10 mM Na-Hepes (pH 7.4) and 0.5% DMSO.
GABA was applied for 20-50 seconds without or in combination with other drugs and a washout period of 4 minutes was allowed to ensure full recovery from desensitization, which was experimentally determined. The perfusion solution (6 mL/min) was applied through a glass capillary with an inner diameter of 1.35 mm, the mouth of which was placed about 0.4 mm from the surface of the oocyte. The rate of solution change under our conditions has been estimated 70% within less than 0.5 s (Sigel et al., 1990; Neuron 5, 703-711). The entire perfusion system and the assay chamber were cleaned between drug applications by washing with DMSO.
Data is given as mean±SD, except in the figures where data is shown for clarity as mean±SEM. Current stimulation was calculated as follows: stimulation (%)=((I(GABA+modulator)−I(GABA))/I(GABA))×100%, where I is the current amplitude. Where indicated, the stimulation was standardized to the stimulation by 1 μM diazepam (100%). To obtain FIGS. 1-4, values for current stimulation obtained at a given concentration of modulator at a given subunit combination were averaged. The data points were fitted with the equation stimulation=efficacy/(1+(potency/concentration of modulator)). The values given in the Tables (Summary) are obtained by fitting individual curves and subsequently averaging efficacy and potency.
Concentration response curves were also performed with oocytes expressing α2β2γ2, α3β2γ2, or α5β2γ2, after establishing the optimal concentration range as indicated above. […] Averaged data of the individual curves summarizing the effects of the compound of formula (II) are shown below for unstandardized and standardized stimulation.
Concentration response curves were also performed with oocytes expressing α2β2γ2, α3β2γ2, or α5β2γ2.
Current stimulation by diazepam was determined in each batch of oocytes as follows. GABA (EC3-5) was applied until a stable response was obtained. Subsequently, GABA was applied in combination with 1 μM diazepam.

T1 sequence (P19969 32-464 limits assumed): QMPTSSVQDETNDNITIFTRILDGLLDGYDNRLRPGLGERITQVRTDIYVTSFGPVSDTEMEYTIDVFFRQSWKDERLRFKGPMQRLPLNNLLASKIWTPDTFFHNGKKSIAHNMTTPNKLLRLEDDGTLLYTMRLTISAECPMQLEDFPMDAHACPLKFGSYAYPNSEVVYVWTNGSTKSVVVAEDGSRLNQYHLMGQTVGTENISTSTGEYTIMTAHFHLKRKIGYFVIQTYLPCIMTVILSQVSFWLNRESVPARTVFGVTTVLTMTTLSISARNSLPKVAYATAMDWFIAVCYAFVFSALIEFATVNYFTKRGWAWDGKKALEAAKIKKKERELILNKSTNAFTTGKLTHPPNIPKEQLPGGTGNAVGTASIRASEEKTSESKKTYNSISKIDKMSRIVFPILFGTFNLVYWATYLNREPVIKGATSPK
T1 sequence (P63138 25-474 partner limits assumed): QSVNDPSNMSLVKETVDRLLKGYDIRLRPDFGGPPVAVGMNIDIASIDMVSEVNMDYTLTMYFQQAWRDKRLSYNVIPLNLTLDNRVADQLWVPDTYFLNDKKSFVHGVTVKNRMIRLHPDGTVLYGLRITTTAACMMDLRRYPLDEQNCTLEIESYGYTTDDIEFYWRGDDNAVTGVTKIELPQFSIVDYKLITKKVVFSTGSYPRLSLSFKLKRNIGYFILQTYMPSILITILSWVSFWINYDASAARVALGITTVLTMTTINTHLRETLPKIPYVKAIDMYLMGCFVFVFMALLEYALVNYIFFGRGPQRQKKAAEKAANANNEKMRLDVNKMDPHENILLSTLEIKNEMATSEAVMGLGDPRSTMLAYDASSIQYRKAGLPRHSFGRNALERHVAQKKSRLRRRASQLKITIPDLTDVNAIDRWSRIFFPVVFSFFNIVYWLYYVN
T1 sequence (P18508 39-466): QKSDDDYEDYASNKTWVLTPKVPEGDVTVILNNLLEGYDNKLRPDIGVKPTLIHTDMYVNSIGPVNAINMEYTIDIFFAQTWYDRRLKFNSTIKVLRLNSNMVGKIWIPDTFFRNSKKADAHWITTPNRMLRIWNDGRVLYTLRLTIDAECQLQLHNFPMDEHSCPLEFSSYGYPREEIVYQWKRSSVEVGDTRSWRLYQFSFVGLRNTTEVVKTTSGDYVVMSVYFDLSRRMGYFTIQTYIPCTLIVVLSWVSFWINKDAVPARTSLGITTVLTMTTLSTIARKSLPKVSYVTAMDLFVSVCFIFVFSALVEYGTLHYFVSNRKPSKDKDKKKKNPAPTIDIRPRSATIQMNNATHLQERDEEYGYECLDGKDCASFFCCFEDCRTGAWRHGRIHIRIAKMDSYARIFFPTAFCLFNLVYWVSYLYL

## CN(C)Cc1nc(-c2ncn3c2CN(C)C(=O)c2c(Cl)cccc2-3)no1 [compound of formula (II), 7-chloro-3-(5-dimethylaminomethyl-[1,2,4]oxadiazol-3-yl)-5-methyl-4,5-dihydro-imidazo[1,5-a][1,4]benzodiazepine-6-one]
[1]; 1.5 mg
  increase of TST compared to placebo: 33.1 min
  reduction of LPS compared to placebo: 17.0 min
  reduction of WASO compared to placebo: 16.7 min
  reduction of total wake time in hours 5-8: 10.8 min
[1]; 1.5 mg (n = 71)
  Number of Patients with Any Event: 13
  Number of Patients with Headache: 3
  Number of Patients with Somnolence: 2
  Patients with Any Event, percent: 18.3%
  Patients with Headache, percent: 4.2%
  Patients with Somnolence, percent: 2.8%
[1]; 1.5 mg and 2.5 mg
  safety and tolerability: safe and well-tolerated
[1]; 1.5 mg and 2.5 mg, compared to placebo, p<0.0001
  WASO in the second half of the night (5-8 hours after lights out): reduced WASO
[1]; 1.5 mg or 2.5 mg compared with placebo
  patient-reported residual sedation effects: no patient-reported residual sedation effects
[1]; 1.5 mg vs. placebo
  Adjusted mean LPS (min), p value: p < 0.0001
  Adjusted mean TST (min), p value: p < 0.0001
  Adjusted mean WASO (min), p value: p < 0.0001
  Adjusted mean total wake time, 2nd half (min), p value: p = 0.0008
[1]; 2.5 mg
  increase of TST compared to placebo: 45.0 min
  reduction of LPS compared to placebo: 20.7 min
  reduction of WASO compared to placebo: 25.7 min
  reduction of total wake time in hours 5-8: 16.2 min
[1]; 2.5 mg (n = 71)
  Number of Patients with Any Event: 18
  Number of Patients with Headache: 6
  Number of Patients with Somnolence: 4
  Patients with Any Event, percent: 25.4%
  Patients with Headache, percent: 8.5%
  Patients with Somnolence, percent: 5.6%
[1]; 2.5 mg vs. placebo
  Adjusted mean LPS (min), p value: p < 0.0001
  Adjusted mean TST (min), p value: p < 0.0001
  Adjusted mean WASO (min), p value: p < 0.0001
  Adjusted mean total wake time, 2nd half (min), p value: p < 0.0001
[1]; 2.5 mg, hour 7 p 0.0577
  total time awake during each hour after dosing: statistically significant reduction each hour, except hour 7
[1]; 1.5 and 2.5 mg
  REM sleep: only a small effect on REM sleep
  patient-reported sleep quality: marked improvement in sleep quality
  sleep architecture: equivalent to the natural sleep architecture
  slow wave sleep: no impairment of slow wave sleep
[1]; 9 hours after dose, compared with placebo
  Digit Symbol Substitution Test (DSST) scores: only slightly lower
[2]; in vivo, po
  half-life: 3 to 4 h
[2]; oral
  effect of food on the extent of absorption: little or no effect
[2]; oral repeat dosing
  pharmacokinetic profile on day 14 after repeat dosing compared to day 1: no significant differences
[3]; GABA EC3-5, mean±SD of individually fitted curves, read-out: Potency
  EC50: 53 ± 6 nM
[3]; standardized to stimulation by 1 μM diazepam (100%)
  Standardized Efficacy: 69 ± 23% (n = 5)
[3]; unstandardized current stimulation
  Efficacy: 135 ± 16% (n = 5)
